{
  "source": "patent US11517598B2",
  "about": "(priority 2016, dated 2022)",
  "key": {"[1]": {"system": "oncolytic VSVΔ51 in 786-0 renal carcinoma cells"}, "[2]": {"system": "CT26WT tumors", "conditions": "mouse"}, "[3]": {"system": "IFITM1", "sequence (P13164 whole entry)": "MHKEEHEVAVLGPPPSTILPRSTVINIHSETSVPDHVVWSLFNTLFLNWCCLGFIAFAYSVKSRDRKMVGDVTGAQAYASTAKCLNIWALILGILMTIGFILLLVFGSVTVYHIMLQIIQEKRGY", "type": "cell-based, human"}, "[4]": {"conditions": "mouse, in vivo"}, "[5]": {"system": "VSVΔ51 matrix (M) mRNA in CT26-WT colon cancer cells", "type": "cell-based, mouse"}, "[6]": {"system": "CXCL9 in various human cancer cell lines", "type": "cell-based"}, "[7]": {"system": "bilateral DBT tumors", "conditions": "mouse, in vivo"}, "[8]": {"system": "VSVΔ51 in GM38 fibroblasts", "type": "cell-based, human"}, "[9]": {"system": "CT26-LacZ tumors", "conditions": "mouse, in vivo"}, "[10]": {"system": "cytokine, chemokine and IFN stimulated gene expression in 786-0 cells", "type": "cell-based, human"}, "[11]": {"system": "STAT2", "type": "cell-based, human"}, "[12]": {"system": "VSVΔ51 matrix (M) mRNA in 786-0 cells", "type": "cell-based, human"}, "[13]": {"system": "Measles virus in 786-0 cells", "type": "cell-based, human"}, "[14]": {"system": "various human and rodent cancer cell lines"}, "[15]": {"system": "STAT1", "type": "cell-based, human"}, "[16]": {"system": "CT26WT, 4T1, DBT, and Pan02 tumors", "conditions": "mouse, in vivo"}, "[17]": {"system": "VSVΔ51-GFP in normal lung, muscle and spleen tissue cores", "type": "cell-based, mouse"}, "[18]": {"system": "HSV-1 (mutant N212) in 786-0 cells", "type": "cell-based, human"}, "[19]": {"system": "VSVΔ51-GFP in CT26WT and DBT tumor cores", "type": "cell-based, mouse"}, "[20]": {"system": "Sindbis virus in 786-0 cells", "type": "cell-based, human"}, "[21]": {"system": "VSVwt in 786-0 cells", "type": "cell-based, human"}},
  "note": "Entries after “also recorded” stand apart in the source; their conditions may differ. Read-outs that look alike come from different tables or passages of the source.",
  "data": [
    {"molecule": "potassium permanganate [Manganese, reference compound]", "values": [
      {"measurement": "VSVΔ51 growth (viral titer, GFP positive cell counts)", "setting": "[1]", "value": "neither Manganese, Molybdene, or Tungsten oxide salts could enhance VSVΔ51 growth"}
    ]},
    {"molecule": "Sodium orthovanadate", "values": [
      {"measurement": "T-cells within the tumor", "setting": "[2]; in vivo", "value": "increased accumulation of T-cells within the tumor"},
      {"measurement": "re-challenge of cured mice with the same cancer cells", "setting": "[2]; in vivo", "value": "became immune to re-challenge"},
      {"measurement": "in vivo virus-enhancing activity at pH 7", "setting": "[2]; pH 7", "value": "retained its activity"},
      {"measurement": "protein expression levels of IFITM1", "setting": "[3]", "value": "potently repressed"},
      {"measurement": "toxicity", "setting": "[4]", "value": "evidence of toxicity was observed"},
      {"measurement": "toxicity", "setting": "[4]; pH 7", "value": "greatly reduced"},
      {"measurement": "VSVΔ51 matrix (M) protein mRNA and/or viral genomes", "setting": "[5]", "value": "increased the production of VSVΔ51 matrix (M) protein mRNA and/or viral genomes"},
      {"measurement": "CXCL9 secretion (ELISA)", "setting": "[6]", "value": "vanadate-mediated increase"},
      {"measurement": "effect on viral growth when given post infection", "setting": "[1]", "value": "close to nil"},
      {"measurement": "impact on viral growth with pre-treatment time", "setting": "[1]", "value": "increasingly evident with increasing pre-treatment time"},
      {"measurement": "number of virus-infected cells (GFP)", "setting": "[1]", "value": "marked increase in the number of virus-infected cells"},
      {"measurement": "pro-viral activity with metal chelating agent", "setting": "[1]", "value": "abrogated upon inclusion of L-Ascorbic Acid"},
      {"measurement": "viral output (viral titer by plaque assay)", "setting": "[1]", "value": "significantly increase viral output"},
      {"measurement": "virus-enhancing activity at different pH (protonation state)", "setting": "[1]", "value": "had no impact on its activity"},
      {"measurement": "yield of VSVΔ51 in single and multi-step growth curves", "setting": "[1]", "value": "more robustly enhanced the yield of VSVΔ51 when provided at low multiplicity of infection (MOI) compared to high MOI"},
      {"measurement": "tumor regression with monotherapy", "setting": "[7]", "value": "some tumors did regress"},
      {"measurement": "virus-associated luminescence", "setting": "[7]", "value": "uniquely enhanced by vanadate in the injected tumors on the right side"},
      {"measurement": "VSVΔ51 viral growth in normal cells", "setting": "[8]", "value": "viral growth was not enhanced"},
      {"measurement": "enhancing effect on survival", "setting": "[9]", "value": "completely abrogated"},
      {"measurement": "gene set-enrichment (GOrilla), compound alone", "setting": "[10]", "value": "induced inflammatory responses, and immune system processes"},
      {"measurement": "IFNβ-induced phosphorylation of STAT2", "setting": "[11]", "value": "inhibited the IFNβ-induced phosphorylation of STAT2"},
      {"measurement": "STAT2 nuclear accumulation", "setting": "[11]", "value": "reduced its nuclear accumulation"},
      {"measurement": "localisation of STAT-2 (immunofluorescence)", "setting": "[11]", "value": "remained mostly in the cytoplasm"},
      {"measurement": "VSVΔ51 matrix (M) protein mRNA and/or viral genomes", "setting": "[12]", "value": "increased the production of VSVΔ51 matrix (M) protein mRNA and/or viral genomes"},
      {"measurement": "yield of Measles virus", "setting": "[13]", "value": "improved"},
      {"measurement": "cytotoxicity (cell viability) with VSVΔ51 co-infection", "setting": "[14]", "value": "A similar effect"},
      {"measurement": "IFN-β induced phosphorylation of STAT1", "setting": "[15]", "value": "not altered by treatment with vanadate"},
      {"measurement": "IFNβ-induced STAT1 phosphorylation and nuclear accumulation", "setting": "[15]", "value": "did not similarly affect STAT1"},
      {"measurement": "localisation of activated STAT1 (immunofluorescence)", "setting": "[15]", "value": "translocated to the nucleus"},
      {"measurement": "phosphorylation of STAT1 at baseline", "setting": "[15]", "value": "increased by vanadate at baseline"},
      {"measurement": "survival, combination with VSVΔ51", "setting": "[16]", "value": "significantly improved survival; also recorded: significantly prolonged over virus alone"},
      {"measurement": "virus-associated luciferase gene expression (IVIS)", "setting": "[16]", "value": "robustly enhanced virus-associated luciferase gene expression"},
      {"measurement": "growth of VSVΔ51-GFP in normal tissue cores (fluorescence)", "setting": "[17]", "value": "not in normal tissue cores"},
      {"measurement": "HSV-1 growth", "setting": "[18]", "value": "robustly inhibited"},
      {"measurement": "growth of VSVΔ51-GFP in tumor cores (fluorescence)", "setting": "[19]", "value": "robustly increased the growth of the virus in tumor cores"},
      {"measurement": "yield of Sindbis virus", "setting": "[20]", "value": "improved"},
      {"measurement": "wtVSV yield", "setting": "[21]", "value": "modest improvements in wtVSV yield"}
    ]},
    {"molecule": "CC(=O)N[C@@H](CS)C(=O)O", "note": "[NAC, N-acetyl-L-cysteine, reference compound]", "values": [
      {"measurement": "effect of NAC on vanadate-enhanced viral spread (viral titer)", "setting": "[1]", "value": "did not abrogate vanadate's capacity to enhance viral spread"}
    ]},
    {"molecule": "Bis(maltolato) oxovanadium(IV) [BMOV]", "values": [
      {"measurement": "VSVΔ51 growth (viral titer, GFP positive cell counts)", "setting": "[1]", "value": "effectively enhanced VSVΔ51 growth"}
    ]},
    {"molecule": "Chromium(VI) oxide [Chromium trioxide, reference compound]", "values": [
      {"measurement": "VSVΔ51 growth (viral titer)", "setting": "[1]", "value": "did enhance viral growth but only at a single dose tested"},
      {"measurement": "toxicity (not shown)", "setting": "[1]", "value": "highly toxic in comparison to orthovanadate"}
    ]},
    {"molecule": "Tungsten [reference compound]", "values": [
      {"measurement": "VSVΔ51 growth (viral titer, GFP positive cell counts)", "setting": "[1]", "value": "neither Manganese, Molybdene, or Tungsten oxide salts could enhance VSVΔ51 growth"}
    ]},
    {"molecule": "Ammonium metavanadate", "values": [
      {"measurement": "VSVΔ51 growth (viral titer, GFP positive cell counts)", "setting": "[1]", "value": "effectively enhanced VSVΔ51 growth"}
    ]},
    {"molecule": "Vanadium(IV) oxide sulfate hydrate [VS]", "values": [
      {"measurement": "VSVΔ51 growth (viral titer, GFP positive cell counts)", "setting": "[1]", "value": "effectively enhanced VSVΔ51 growth"}
    ]},
    {"molecule": "Vanadium(V) oxytriethoxide [VOx]", "values": [
      {"measurement": "VSVΔ51 growth (viral titer, GFP positive cell counts)", "setting": "[1]", "value": "effectively enhanced VSVΔ51 growth"}
    ]}
  ]
}
